{
  "source": "patent US6495585B2",
  "about": "“Method for treating hyperproliferative tissue in a mammal” (Health Research, Inc., priority 2001, dated 2002)",
  "key": {"TNF-α": {"test_system": "TNF-α", "settings": "cited from earlier work"}, "RIF-1 tumors": {"test_system": "RIF-1 tumors", "method": "The drawings illustrate the responses of RIF-1 tumors to either PDT (FIG. 2a) or DMXAA (FIG. 2b). Dose response data are shown in the form of Kaplan-Meier ‘survival’ plots, where the percent of RIF-1 tumors with volumes less than […] are plotted against time from treatment. Tumor volumes at the time of treatment were 50-70 mg (approximately […] of the mouse body mass).\nIn pilot studies of PDT plus adjuvant DMXAA only low doses of each modality were chosen. […] 23 hours, 20 mg DMXAA/kg. 2 hours, 135 J/cm^263-nm laser light. Control tumors (no drug, no light) are shown as solid black squares; DMXAA are shown as open circles; PDT alone as gray circles.\nThe symbols in the graph are the same as for FIG. 3."}, "[1]": {"test_system": "cultured human and murine cells", "settings": "cited from earlier work"}, "implanted murine tumors": {"test_system": "implanted murine tumors", "settings": "compared with FAA; cited from earlier work"}, "tumor cell lines": {"test_system": "tumor cell lines", "settings": "cited from earlier work"}, "[2]": {"test_system": "natural killer cell activity", "settings": "spleen and other tissues; cited from earlier work"}, "tumor blood flow": {"test_system": "tumor blood flow", "settings": "in vivo; cited from earlier work"}, "Colon 38 tumors": {"test_system": "Colon 38 tumors", "settings": "compared with FAA; cited from earlier work"}},
  "data": [
    {"smiles": "Cc1ccc2c(=O)c3cccc(CC(=O)O)c3oc2c1C", "note": "[DMXAA, 5,6-Dimethylxanthenone-4-acetic acid]", "values": [
      {"measurement": "cytokine induction", "setting": "TNF-α", "result": "induce TNF-α along with IFN-γ"},
      {"measurement": "tumor control (percent of RIF-1 tumors with volumes less than 400 mm vs time from treatment)", "setting": "RIF-1 tumors; administered alone, Kaplan-Meier plots, FIG. 2a/2b", "result": "control tumors in a dose-dependent manner"},
      {"measurement": "toxicity of most effective doses", "setting": "RIF-1 tumors; mouse, in vivo", "result": "most effective doses are at or near the treatment toxic limits"},
      {"measurement": "in vitro activity", "setting": "[1]", "result": "active in vitro"},
      {"measurement": "dose potency against implanted murine tumors", "setting": "implanted murine tumors", "result": "considerably greater dose potencies than FAA"}
    ]},
    {"smiles": "O=C(O)Cc1cccc2c(=O)cc(-c3ccccc3)oc12", "note": "[FAA, Flavone-8-acetic acid]", "values": [
      {"measurement": "in vitro activity against tumor cell lines", "setting": "tumor cell lines", "result": "shows in vitro activity against a number of tumor cell lines"},
      {"measurement": "natural killer cell activity", "setting": "[2]", "result": "induces natural killer cell activity"},
      {"measurement": "effect on tumor blood flow", "setting": "tumor blood flow", "result": "causes reduction in tumor blood flow"}
    ]},
    {"smiles": "O=C(O)Cc1cccc2c(=O)c3ccccc3oc12", "note": "[XAA, Xanthenone-4-acetic acid]", "values": [
      {"measurement": "efficiency in eliminating Colon 38 tumors", "setting": "Colon 38 tumors", "result": "more efficient than FAA"}
    ]}
  ]
}
